Results on three molecules are retold here after ChEMBL document CHEMBL1201862, “PubChem BioAssay data set” (2004).

The structures appear in SMILES notation. Calls of active or inactive are those of the source. A value given as a limit tells only on which side of the number the result lay.

Assay [1] has as its target T1, G-protein coupled receptor 55 (Homo sapiens, UniProt Q9Y2T6). Description: SAR analysis of selective Agonists of GPR55 using an Image-Based Assay. [Related pubchem assays (depositor defined):AID1961, AID1965]. In kind it is functional.
Assay [2] concerns the target T1, G-protein coupled receptor 55. Description: selective activators of receptor GPR55 – imaging, U2OS cells, beta-arrestin-GFP redistribution, primary screen (AID 1961). In kind it is functional.
In assay [3] the target is T2, Cannabinoid receptor 2 (Homo sapiens, UniProt P34972). Description: SAR analysis of agonists of the Cannabinoid Receptor 2 using an Image-Based Assay - Set 2. [Related pubchem assays (depositor defined):AID1961, AID1965]. In kind it is functional.
Assay [4] addresses T2, Cannabinoid receptor 2. Description: SAR analysis of antagonists of the Cannabinoid Receptor 2 using an Image-Based Assay - Set 2. [Related pubchem assays (depositor defined):AID1961, AID1965]. In kind it is functional.
The target in another assay is Cannabinoid receptor 1 (Homo sapiens, UniProt P21554). In words: SAR analysis of antagonists of the Cannabinoid Receptor 1 using an Image-Based Assay. [Related pubchem assays (depositor defined):AID1961, AID1965]. In kind it is functional.
Assay [5] in a line: non-specific 3'UTR reporter inhibition in Clone20-Shn3RL – cell-based, Renilla luciferase, cherry-picked, counter-screen for Shn3 inhibitor project, dose response (AID 624133). The class given is functional.
Assay [6] can be described thus: NIH3T3 cell viability loss – ATP luminescence, mouse fibroblasts, counter-screen, dose response (AID 2010).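 Note: cells exposed to compound for about 90 hours before reading.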 In kind it is functional, cell-based. In general terms: A counterscreen serves to expose hits that act by an unwanted route or on another target.
Another assay has as its system A-375. Description: MITF: Counter assay: A375 proliferation Measured in Cell-Based System Using Plate Reader - 2084-03_Inhibitor_Dose_DryPowder_Activity. [Related pubchem assays (depositor defined):AID488944]. Conditions: Homo sapiens. The class given is functional.
The nature of assay [7]: loss of viability in HepG2 cells – cell-based, CellTiter-Glo, cherry-picked, cytotoxicity control for Shn3 inhibitor project, dose response (AID 624134). The class given is functional. (In general: Cellular ATP, detected with luciferase, serves as a proxy for viable cell number.)
Another assay concerns H4. In words: Luminescence Cell-Based Dose Response HTS to Identify Activators of 5'UTR Stem-Loop Driven Prion Protein mRNA Translation in H4 Neuroglioblastoma Cells. [Related pubchem assays: 1829 (Project Summary), 1814 (Primary HTS)]. In kind it is functional. The following applies: Homo sapiens.
A short description of assay [8]: Trypanosoma cruzi growth suppression in host cells – NIH3T3 host cells, beta-gal luminescence, confirmation (AID 2044).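 Note: intracellular parasites grown in NIH/3T3 mouse fibroblasts as host cells; luminescent beta-galactosidase reporter signal from transgenic T. cruzi replicating inside host cells; inhibitors lower the luminescence signal.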 The class given is functional, cell-based.
Assay [9] deals with T3, Microphthalmia-associated transcription factor (Homo sapiens, UniProt O75030).
T3 sequence (O75030 whole entry): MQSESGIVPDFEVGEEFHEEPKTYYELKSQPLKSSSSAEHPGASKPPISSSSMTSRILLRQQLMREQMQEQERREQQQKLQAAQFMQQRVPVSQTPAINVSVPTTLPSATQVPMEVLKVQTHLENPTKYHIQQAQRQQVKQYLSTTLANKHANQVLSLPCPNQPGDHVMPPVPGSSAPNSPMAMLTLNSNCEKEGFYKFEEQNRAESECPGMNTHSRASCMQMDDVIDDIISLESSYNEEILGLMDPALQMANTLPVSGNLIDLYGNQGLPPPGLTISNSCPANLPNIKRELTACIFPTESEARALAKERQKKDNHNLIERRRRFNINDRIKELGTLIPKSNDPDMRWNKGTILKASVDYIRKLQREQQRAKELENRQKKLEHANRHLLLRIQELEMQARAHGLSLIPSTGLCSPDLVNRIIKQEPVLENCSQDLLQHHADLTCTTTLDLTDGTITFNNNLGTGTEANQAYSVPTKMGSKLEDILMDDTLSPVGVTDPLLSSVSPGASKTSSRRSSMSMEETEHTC
Description: reducers of TRPM1 reporter luminescence, concentration series – cell-based, SK-MEL-5, cherry-picked, set 3, MITF inhibitor project, dose response (AID 493073).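 Note: SK-MEL-5 melanoma cells with luciferase driven by the MITF target TRPM1 promoter.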 The class given is functional.

A short description of assay [10]: Luminescence Cell-Based Dose Confirmation HTS to Identify Activators of 5'UTR Stem-Loop Driven Alpha-Synuclein mRNA Translation in H4 Neuroglioblastoma Cells. [Related pubchem assays: 1829 (Project Summary), 1814 (Primary HTS)]. In kind it is functional.
A short description of assay [11]: Luminescence Cell-Based Dose Response HTS to Identify Activators of Luciferase Translation or Activity in H4 […] Cells. [Related pubchem assays: 1829 (Project Summary), 1814 (Primary HTS)]. The class given is functional.
A short description of assay [12]: reduction of Shn3 3'UTR-driven luciferase in osteoblasts – cell-based, Clone20 osteoblasts, firefly luciferase, cherry-picked, dose response (AID 624132).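 Note: firefly luciferase luminescence from reporter carrying the Shn3 3'UTR in osteoblasts.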 The class given is functional.
Assay [13] concerns the target DNA damage-inducible transcript 3 protein (Mus musculus, UniProt P35639). In kind it is functional, Cricetulus griseus.
The subject of the next assay is HEK293. Description: EBV LMP1 TES2 canonical NF-kB signalling blockers – cell-based, HEK293, luciferase, cherry-pick, dose response (AID 588343). In kind it is functional. The following applies: Homo sapiens.
The nature of assay [14]: toxicity toward cultured mammalian cells – cell-based, plate reader, cherry-pick samples, cytotoxicity control, dose response (AID 504397). The class given is functional.
Assay [15] concerns the target Voltage-gated inwardly rectifying potassium channel KCNH2 (Homo sapiens, UniProt Q12809). Description: concentration-dependent hERG rescue from blockers – cell-based, thallium flux, dose response (AID 2121). The class given is ADME.

T2 sequence (P34972 whole entry): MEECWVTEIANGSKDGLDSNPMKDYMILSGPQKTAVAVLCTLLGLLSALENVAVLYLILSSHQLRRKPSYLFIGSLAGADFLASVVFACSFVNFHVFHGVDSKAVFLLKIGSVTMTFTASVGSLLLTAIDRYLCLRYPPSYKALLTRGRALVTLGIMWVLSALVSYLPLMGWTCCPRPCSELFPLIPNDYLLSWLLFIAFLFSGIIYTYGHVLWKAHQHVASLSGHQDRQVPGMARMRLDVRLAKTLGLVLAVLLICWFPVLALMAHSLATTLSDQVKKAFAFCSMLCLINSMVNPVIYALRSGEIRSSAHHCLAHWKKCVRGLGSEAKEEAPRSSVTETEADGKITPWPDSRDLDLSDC
T1 sequence (Q9Y2T6 whole entry): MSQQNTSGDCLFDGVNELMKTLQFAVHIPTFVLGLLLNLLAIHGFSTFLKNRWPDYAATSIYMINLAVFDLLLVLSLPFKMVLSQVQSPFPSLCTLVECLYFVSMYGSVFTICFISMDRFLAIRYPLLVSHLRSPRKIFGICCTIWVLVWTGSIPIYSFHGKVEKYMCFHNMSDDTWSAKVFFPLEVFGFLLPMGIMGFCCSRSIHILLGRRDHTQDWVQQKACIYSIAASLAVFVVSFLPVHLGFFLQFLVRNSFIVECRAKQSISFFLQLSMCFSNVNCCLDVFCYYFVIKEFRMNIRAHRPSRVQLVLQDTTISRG
Chain of Cannabinoid receptor 1 (P21554 whole entry): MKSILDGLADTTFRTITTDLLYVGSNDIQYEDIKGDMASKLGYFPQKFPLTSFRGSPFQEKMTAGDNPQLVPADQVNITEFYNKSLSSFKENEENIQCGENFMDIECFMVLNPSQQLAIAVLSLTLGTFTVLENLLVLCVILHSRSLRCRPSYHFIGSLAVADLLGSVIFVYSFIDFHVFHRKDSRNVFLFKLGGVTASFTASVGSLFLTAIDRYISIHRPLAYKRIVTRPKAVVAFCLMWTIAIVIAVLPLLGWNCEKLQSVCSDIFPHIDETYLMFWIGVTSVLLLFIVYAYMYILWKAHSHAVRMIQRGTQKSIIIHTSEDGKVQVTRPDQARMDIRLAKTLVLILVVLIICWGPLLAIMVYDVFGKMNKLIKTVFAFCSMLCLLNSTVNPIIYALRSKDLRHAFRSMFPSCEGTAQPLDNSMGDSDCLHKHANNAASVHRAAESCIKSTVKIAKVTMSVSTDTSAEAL
Chain of Voltage-gated inwardly rectifying potassium channel KCNH2 (Q12809 whole entry): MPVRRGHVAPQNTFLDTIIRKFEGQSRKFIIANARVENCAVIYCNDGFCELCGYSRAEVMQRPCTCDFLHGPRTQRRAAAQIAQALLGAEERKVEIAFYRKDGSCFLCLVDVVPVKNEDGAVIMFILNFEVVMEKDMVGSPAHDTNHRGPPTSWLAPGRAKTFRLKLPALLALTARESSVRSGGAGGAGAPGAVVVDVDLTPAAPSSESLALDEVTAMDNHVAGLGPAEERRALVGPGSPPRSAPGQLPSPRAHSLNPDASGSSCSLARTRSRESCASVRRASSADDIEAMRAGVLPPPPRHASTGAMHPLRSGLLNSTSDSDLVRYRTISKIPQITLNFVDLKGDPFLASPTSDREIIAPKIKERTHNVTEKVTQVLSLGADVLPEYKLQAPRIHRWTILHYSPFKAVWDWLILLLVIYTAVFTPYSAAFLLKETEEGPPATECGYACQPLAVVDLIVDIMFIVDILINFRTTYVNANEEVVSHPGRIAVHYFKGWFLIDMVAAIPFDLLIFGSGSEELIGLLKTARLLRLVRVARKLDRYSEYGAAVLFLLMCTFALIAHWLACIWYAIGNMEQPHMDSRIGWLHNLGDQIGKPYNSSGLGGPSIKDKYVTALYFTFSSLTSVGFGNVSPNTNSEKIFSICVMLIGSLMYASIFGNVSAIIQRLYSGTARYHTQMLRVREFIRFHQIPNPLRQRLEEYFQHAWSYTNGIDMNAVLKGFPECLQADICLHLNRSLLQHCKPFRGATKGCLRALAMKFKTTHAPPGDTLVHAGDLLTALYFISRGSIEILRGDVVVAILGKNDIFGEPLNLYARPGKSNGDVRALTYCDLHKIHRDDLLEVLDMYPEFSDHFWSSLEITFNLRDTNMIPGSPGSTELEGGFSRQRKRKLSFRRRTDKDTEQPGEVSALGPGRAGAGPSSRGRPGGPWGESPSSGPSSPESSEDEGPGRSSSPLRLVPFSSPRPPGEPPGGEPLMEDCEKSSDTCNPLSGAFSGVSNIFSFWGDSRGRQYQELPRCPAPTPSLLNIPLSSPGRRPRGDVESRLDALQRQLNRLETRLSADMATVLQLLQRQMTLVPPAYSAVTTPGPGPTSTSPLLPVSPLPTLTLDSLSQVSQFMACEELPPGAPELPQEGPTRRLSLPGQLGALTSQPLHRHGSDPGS
Chain of DNA damage-inducible transcript 3 protein (P35639 whole entry): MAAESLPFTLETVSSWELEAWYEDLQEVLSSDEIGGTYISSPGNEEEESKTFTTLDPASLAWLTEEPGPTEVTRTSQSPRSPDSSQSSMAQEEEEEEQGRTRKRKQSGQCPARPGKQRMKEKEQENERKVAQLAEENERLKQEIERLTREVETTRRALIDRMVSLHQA

Take `O=C(CSc1nc2ccccc2s1)N1c2ccccc2Sc2ccc(Cl)cc21`: the EC50 (usually the concentration needed to bring the measured effect to its halfway point) in [1] is 0.748 µM (active); in assay [2], 0.84 µM (active); on Cannabinoid receptor 2 [3] it was 0.0905 µM (active). The IC50 at Cannabinoid receptor 2 [4] and at Cannabinoid receptor 1 was > 32 µM (inactive) each time.

Consider `CC(C)(C)C(=O)Cn1ncc(Br)c(Br)c1=O`, for which the AC50 (usually the midpoint of the concentration-response curve, whichever way the signal moves) is 13.9 µM (active) in [5]; 32.8 µM (active) with A-375; 67.2 µM (active) in [7]; 3.92 µM (active) in assay [9]; 9.51 µM (active) in [12]. The EC50 in assay [6] was 1.93 µM (active); with H4 it was > 120 µM (not active); in [8] it was 2.19 µM (active); in [10], > 120 µM (not active); in assay [11], > 120 µM (not active). The “Absolute IC50 (CHOP)” value in [13] was 10 µM.

As to `Oc1c(N=NC(S)=Nc2ccccc2F)c2ccccc2n1Cc1ccccc1F`, the figures for the AC50 (in the assay on HEK293; in assay [14]) were 4.06 µM (active) and 302 µM (active), respectively. For the same molecule, the EC50 in assay [8] is 1.26 µM (active); in assay [15], 0.44 µM (active).
